The record followed here is US4628083A, “2-hydroxy-5-(arylazo)-benzene alkanoic acids” (Pharmacia AB, priority 1985, dated 1986).

Common to all, as to type: biochemical
The target in test [1] is T1, prostaglandin-15-dehydrogenase (Rattus norvegicus, UniProt O08699).
T1 construct: cellfree preparations of different organs (containing prostaglandin-15-dehydrogenase); from tissue
T1 sequence (O08699 1-266): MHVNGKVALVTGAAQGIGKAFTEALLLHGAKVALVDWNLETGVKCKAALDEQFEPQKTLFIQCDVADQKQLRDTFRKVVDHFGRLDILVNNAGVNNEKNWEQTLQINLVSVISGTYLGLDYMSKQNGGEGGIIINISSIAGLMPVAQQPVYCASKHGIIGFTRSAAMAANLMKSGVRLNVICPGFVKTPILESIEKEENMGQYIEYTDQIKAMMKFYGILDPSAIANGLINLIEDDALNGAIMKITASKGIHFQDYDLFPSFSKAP
The test can be described thus: Inhibition of prostaglandin F2α inactivation in cell-free rat organ preparations. The note with it: for inhibition at 50 µM: 50 μM (A 19,9 μg/ml; C 12,8 μg/ml); for inhibition at 2 µM: 2 μM (0,82 μg/ml). How it is done: (§1) Radioactive prostaglandin F2α was incubated with cellfree preparations of different organs (containing prostaglandin-15-dehydrogenase) according to Hoult and Moore, British Journal of Pharmacology, Vol. 61 (1977), p. 615. After a suitable time the prostaglandins were extracted and separated by chromatography. Then the amount of remaining prostaglandin F2α was compared with the amounts of metabolites. The inhibiting effect was obtained by the addition of the compounds according to the invention during the incubation and comparison with control experiments without such addition. The results may be represented either as a concentration giving 50% inhibition of the prostaglandin inactivation, or as an inhibition in percent at a certain concentration of the studied compound. In the following table the results for some compounds according to the invention are shown compared to the known drug sulfasalazine.

The target of test [2] is T2, prostaglandin-15-dehydrogenase (Homo sapiens, UniProt P15428).
T2 construct: cellfree preparations of different organs (containing prostaglandin-15-dehydrogenase); from tissue; host or cells: human placenta
T2 sequence (P15428 1-266): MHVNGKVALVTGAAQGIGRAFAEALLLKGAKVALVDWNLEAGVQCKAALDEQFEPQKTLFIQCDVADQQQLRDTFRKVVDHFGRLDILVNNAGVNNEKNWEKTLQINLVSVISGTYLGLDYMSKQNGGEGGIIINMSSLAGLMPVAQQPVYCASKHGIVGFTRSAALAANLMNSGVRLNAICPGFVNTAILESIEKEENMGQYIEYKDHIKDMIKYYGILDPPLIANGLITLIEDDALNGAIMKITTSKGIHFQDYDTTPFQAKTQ
The test can be described thus: Inhibition of prostaglandin F2α inactivation in cell-free human placenta preparation. The note with it: for IC50: Inhibition 50 %, read-out: concentration giving 50% inhibition of the prostaglandin inactivation (converted). How it is done:
as §1

For test [3], the target named is T3, prostaglandin-15-dehydrogenase (Cavia porcellus, UniProt P70684).
T3 construct: cellfree preparations of different organs (containing prostaglandin-15-dehydrogenase); from tissue
T3 sequence (P70684 1-265): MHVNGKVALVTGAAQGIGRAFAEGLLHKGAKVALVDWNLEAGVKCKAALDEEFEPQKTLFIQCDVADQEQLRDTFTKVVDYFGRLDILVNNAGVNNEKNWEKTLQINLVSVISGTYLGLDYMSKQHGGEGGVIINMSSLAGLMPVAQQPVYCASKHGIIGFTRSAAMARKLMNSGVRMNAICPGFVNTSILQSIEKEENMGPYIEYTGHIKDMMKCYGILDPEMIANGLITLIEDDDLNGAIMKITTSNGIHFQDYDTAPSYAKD
The test is described as follows: Inhibition of prostaglandin F2α inactivation in cell-free guinea pig organ preparations. The note with it: for inhibition at 2 µM: 2 μM (0,82 μg/ml); for inhibition at 50 µM: 50 μM (B 20,6 μg/ml; C 12,8 μg/ml). How it is done: as §1

[4] abbreviates: relative to compound A (sulfasalazine).

Molecules are shown by their SMILES. “And” between values parts separate entries of the source, which are not always exact repeats. Identical values can stand only once.

With `O=C(O)c1cc(/N=N/c2ccc(S(=O)(=O)Nc3ccccn3)cc2)ccc1O` [A, sulfasalazine, reference compound], at 50 µM the inhibition in test [1] (Rat colon) was 47.8%. In addition, in test [2] (Human placenta), the IC50 is 95 µM and 95.4 µM.
Turning to `O=C(O)Cc1cc(N=Nc2ccc(S(=O)(=O)Nc3ccccn3)cc2)ccc1O` [B, 2-hydroxy-5-[4-[[(2-pyridinyl)amino]sulfonyl]phenylazo]benzeneacetic acid], the inhibition (as a rule, the change of the read-out against control, counted positive when it falls) at 2 µM in test [1] (Rat colon) turned out to be 53.3%; in test [1] (Rat kidney) it was 94.1%; in test [1] (Rat lung), 85.2%; in test [1] (Rat stomach), 67.2%; in test [3] (Guinea pig colon), 58.7%; in test [3] (Guinea pig duodenum), 68.3%. The compound also displayed an inhibition at 2 µM in test [3] (Guinea pig kidney) of 53.8%. Besides, the inhibition at 50 µM in test [2] (Human placenta, 50 μM (20,6 μg/ml)) was 87.5%; in test [3] (Guinea pig kidney), 65.9%. Also, the IC50 in test [2] (Human placenta) was 1.9 µM and 1.89 µM. Further, the “times as active as the known compound A” value in test [2] (setting [4]) is 50 times.
For the compound `O=C(O)Cc1cc(N=Nc2ccccc2)ccc1O` [C, 2-hydroxy-5-phenylazo-benzeneacetic acid], the inhibition at 50 µM is 71.3% in test [1] (Rat colon) and 45.4% in test [3] (Guinea pig kidney). Moreover, the “activity compared with compound A” value in test [1] (setting [4]) is listed as “significantly more active than compound A”.
